Where two headings read alike, the source gives them in different places. One block for each compound: values may come before it.
What was measured:
Type in all cases: cell-based
OVCAR4 = assay: In vitro anti-cancer activity, ovarian cancer, cell line OVCAR4; settings: Homo sapiens, OVCAR-4
From the text: (§1) In particular, these compounds are related to taxol, the recently FDA approved anticancer drug, and its various analogues having an additional hydroxyl group at C-14 position of the taxane skeleton. […] Selectivity and sensitivity were particularly good at 0.01 to 1 μm concentrations at G150 level (concentrations of the agent in the assay that produced 50 0 growth inhibition).
(§2) IN VITRO ANTI-CANCER ACTIVITY DATA OF 7,10-DIMETHYLACETONIDO 14-HYDROXY TAXOL (Compound 23) ON LEUKEMIA, OVARIAN AND BREAST CANCER CELL LINES IN COMPARISON TO TAXOL
(§3) All the values are given in μm concentrations:
(§4) The notations GI50, TGI refer to the concentrations of the agent in the assay that produced 50% growth inhibition, total growth inhibition respectively.

SR = assay: In vitro anti-cancer activity, leukemia, cell line SR; settings: Homo sapiens
From the text: as §1, §2, §3, §4

H5578T = assay: In vitro anti-cancer activity, breast cancer, cell line H5578T
From the text: as §1, §2, §3, §4

HL60 = assay: In vitro anti-cancer activity, leukemia, cell line HL60; settings: Homo sapiens, HL-60
From the text: as §1, §2, §3, §4

[1] = tested on: three ovarian cancer cell lines; assay: Activity on three ovarian cancer cell lines (National Cancer Institute protocols)
From the text: as §1

MDA-N = assay: In vitro anti-cancer activity, breast cancer, cell line MDA-N; settings: Homo sapiens
From the text: as §1, §2, §3, §4

HT-29 = assay: In vitro anti-cancer activity, colon cancer, cell line HT-29; settings: Homo sapiens
OVCAR3 = assay: In vitro anti-cancer activity, ovarian cancer, cell line OVCAR3; settings: Homo sapiens, OVCAR-3
From the text: as §1, §2, §3, §4

HCT 116 = assay: In vitro anti-cancer activity, colon cancer, cell line HCT 116; settings: Homo sapiens
K-562 = assay: In vitro anti-cancer activity, leukemia, cell line K-562; settings: Homo sapiens, K562
From the text: as §1, §2, §3, §4

OVCAR5 = assay: In vitro anti-cancer activity, ovarian cancer, cell line OVCAR5; settings: Homo sapiens, OVCAR-5
From the text: as §1, §2, §3, §4

Molt-4 = assay: In vitro anti-cancer activity, leukemia, cell line Molt-4; settings: Homo sapiens
From the text: as §1, §2, §3, §4

[2] = tested on: leukemia, colon cancer and ovarian cancer cell lines; assay: Selectivity and sensitivity (National Cancer Institute protocols); settings: towards leukemia
From the text: as §1

HCT 15 = assay: In vitro anti-cancer activity, colon cancer, cell line HCT 15; settings: Homo sapiens
T47D = assay: In vitro anti-cancer activity, breast cancer, cell line T47D; settings: Homo sapiens
From the text: as §1, §2, §3, §4

KM12 = assay: In vitro anti-cancer activity, colon cancer, cell line KM12; settings: Homo sapiens
[3] = tested on: three leukemia cell lines; assay: Activity on three leukemia cell lines (National Cancer Institute protocols)
From the text: as §1

IGR-OV1 = assay: In vitro anti-cancer activity, ovarian cancer, cell line IGR-OV1; settings: Homo sapiens, IGROV-1
From the text: as §1, §2, §3, §4

MCF7 = assay: In vitro anti-cancer activity, breast cancer, cell line MCF7; settings: Homo sapiens
From the text: as §1, §2, §3, §4

MDA-MB 435 = assay: In vitro anti-cancer activity, breast cancer, cell line MDA-MB 435; settings: Homo sapiens
From the text: as §1, §2, §3, §4

MDA-MB 231 = assay: In vitro anti-cancer activity, breast cancer, cell line MDA-MB 231; settings: Homo sapiens
From the text: as §1, §2, §3, §4

SW 620 = assay: In vitro anti-cancer activity, colon cancer, cell line SW 620; settings: Homo sapiens
From the text: as §1, §2, §3, §4

BT 549 = assay: In vitro anti-cancer activity, breast cancer, cell line BT 549; settings: Homo sapiens
From the text: as §1, §2, §3, §4

RPMI-8226 = assay: In vitro anti-cancer activity, leukemia, cell line RPMI-8226; settings: Homo sapiens
From the text: as §1, §2, §3, §4

[4] = breast cancer, read-out: TGI (total growth inhibition)
[5] = read-out: TGI (total growth inhibition)

GI50 (OVCAR4; ovarian cancer, OVCAR4, read-out: GI50): 1860 nM
GI50 (SR; leukemia, read-out: GI50): 84 nM
GI50 (H5578T; breast cancer, H5578T, read-out: GI50): 137 nM
GI50 (HL60; leukemia, HL60, read-out: GI50): 44 nM
GI50 (MDA-N; breast cancer, read-out: GI50): 33 nM
GI50 (HT-29; colon cancer, read-out: GI50): 79 nM
GI50 (OVCAR3; ovarian cancer, OVCAR3, read-out: GI50): 131 nM
GI50 (HCT 116; colon cancer, HCT 116, read-out: GI50): 228 nM
GI50 (K-562; leukemia, K-562, read-out: GI50): 247 nM
GI50 (OVCAR5; ovarian cancer, OVCAR5, read-out: GI50): 770 nM
GI50 (Molt-4; leukemia, Molt-4, read-out: GI50): 267 nM
GI50 (HCT 15; colon cancer, HCT 15, read-out: GI50): 2140 nM
GI50 (T47D; breast cancer, read-out: GI50): 158 nM
GI50 (KM12; colon cancer, read-out: GI50): 77 nM
GI50 (IGR-OV1; ovarian cancer, IGR-OV1, read-out: GI50): 66 nM
GI50 (MCF7; breast cancer, MCF7, read-out: GI50): 70 nM
GI50 (MDA-MB 435; breast cancer, MDA-MB 435, read-out: GI50): 30 nM
GI50 (MDA-MB 231; breast cancer, MDA-MB 231, read-out: GI50): 500 nM
GI50 (SW 620; colon cancer, SW 620, read-out: GI50): 131 nM
GI50 (BT 549; breast cancer, BT 549, read-out: GI50): 443 nM
GI50 (RPMI-8226; leukemia, read-out: GI50): 57 nM
SMILES: CC(=O)O[C@@]12CO[C@@H]1C[C@@H]1OC(C)(C)O[C@H]3C(=O)[C@@]1(C)[C@@H]2[C@H](OC(=O)c1ccccc1)[C@]1(O)[C@@H](O)[C@H](OC(=O)[C@H](O)[C@@H](NC(=O)c2ccccc2)c2ccccc2)C(C)=C3C1(C)C [Compound 23, 7,10-dimethyl acetonido-14-hydroxy taxol]
IC (total growth inhibition) (H5578T; breast cancer, H5578T, read-out: TGI (total growth inhibition)): 0.89 µM
IC50 [1]: < 1000 nM
IC (total growth inhibition) (MDA-N; [4]): 0.12 µM
selectivity and sensitivity [2]: good selectivity and sensitivity
IC (total growth inhibition) (T47D; [4]): 17.7 µM
IC50 [3]: < 100 nM
IC (total growth inhibition) (MCF7; breast cancer, MCF7, read-out: TGI (total growth inhibition)): > 30 µM
IC (total growth inhibition) (MDA-MB 435; breast cancer, MDA-MB 435, read-out: TGI (total growth inhibition)): 0.12 µM
IC (total growth inhibition) (MDA-MB 231; breast cancer, MDA-MB 231, read-out: TGI (total growth inhibition)): > 30 µM
IC (total growth inhibition) (BT 549; breast cancer, BT 549, read-out: TGI (total growth inhibition)): 11.2 µM

SMILES: CC(=O)O[C@H]1C(=O)[C@@]2(C)[C@H]([C@H](OC(=O)c3ccccc3)[C@]3(O)C[C@H](OC(=O)[C@H](O)[C@@H](NC(=O)c4ccccc4)c4ccccc4)C(C)=C1C3(C)C)[C@]1(OC(C)=O)CO[C@@H]1C[C@@H]2O [Taxol, reference compound]
GI50 (OVCAR4): 380 nM
GI50 (SR): 33 nM
GI50 (H5578T): 12 nM
TGI (total growth inhibition) (H5578T; [5]): 150 nM
GI50 (HL60): 10 nM
GI50 (MDA-N): 4 nM
TGI (total growth inhibition concentration) (MDA-N; [5]): 15 nM
GI50 (HT-29): 8 nM
GI50 (OVCAR3): 22 nM
GI50 (HCT 116; HCT-116): 19 nM
GI50 (K-562): 15 nM
GI50 (OVCAR5): 75 nM
GI50 (Molt-4; MOLT-4): 53 nM
GI50 (HCT 15; HCT-15): 570 nM
GI50 (T47D): 109 nM
TGI (total growth inhibition) (T47D; [5]): 1000 nM
GI50 (KM12): 16 nM
GI50 (IGR-OV1): 28 nM
GI50 (MCF7; MCF7): 9 nM
IC (total growth inhibition) (MCF7; MCF7, read-out: TGI (total growth inhibition)): 1 µM
GI50 (MDA-MB 435; MDA-MB-435): 6 nM
IC (total growth inhibition) (MDA-MB 435; MDA-MB-435, read-out: TGI (total growth inhibition)): 0.025 µM
GI50 (MDA-MB 231; MDA-MB-231): 100 nM
IC (total growth inhibition) (MDA-MB 231; MDA-MB-231, read-out: TGI (total growth inhibition)): 0.67 µM
GI50 (SW 620; SW-620): 20 nM
GI50 (BT 549; BT-549): 60 nM
IC (total growth inhibition) (BT 549; BT-549, read-out: TGI (total growth inhibition)): 0.7 µM
GI50 (RPMI-8226): 6 nM

Source: patent US5763477A, “Taxane derivatives from 14-β-hydroxy-10 deacetylbaccatin III” (Dr. Reddy's Research Foundation, priority 1994, dated 1998)
